# Reference: US12077503B2, “Substituted cyclic amides and their use as herbicides” (FMC CORPORATION, priority 2015, dated 2024)
# Like-named read-outs stand apart in the source and are kept apart here.
# Legend:
# Test in all cases: Test A postemergence
# Assay type in all cases: in vivo
# [1] = test system: blackgrass (Alopecurus myosuroides); settings: Alopecurus myosuroides, post-emergence, 240 h; for pest or weed control at 125 g/ha: 125 g ai/ha; for pest or weed control at 500 g/ha: 500 g ai/ha, visual injury, 0 to 100 scale (0 no effect, 100 complete control), approx. 10 d
# Method in brief: (§1)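 Compounds were formulated in a non-phytotoxic solvent mixture with surfactant and applied as a preemergence directed soil spray after seeding, or sprayed postemergence over plants 2 to 10 cm tall at the one- to two-leaf stage. Evaluation after about 10 d compared treated with untreated controls, using a scale from 0 (no effect) to 100 (complete control).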
# [2] = test system: giant foxtail (Setaria faberii); settings: Setaria faberi, post-emergence, 240 h; for pest or weed control at 125 g/ha: 125 g ai/ha; for pest or weed control at 500 g/ha: 500 g ai/ha, visual injury, 0 to 100 scale (0 no effect, 100 complete control)
# Method in brief: as §1
# [3] = test system: ragweed (common ragweed, Ambrosia elatior); settings: Ambrosia artemisiifolia, post-emergence, 240 h; for pest or weed control at 125 g/ha: 125 g ai/ha; for pest or weed control at 500 g/ha: 500 g ai/ha, visual injury, 0 to 100 scale (0 no effect, 100 complete control)
# Method in brief: as §1
# [4] = test system: ryegrass, Italian (Italian ryegrass, Lolium multiflorum); settings: Lolium multiflorum, post-emergence, 240 h; for pest or weed control at 125 g/ha: 125 g ai/ha; for pest or weed control at 500 g/ha: 500 g ai/ha, visual injury, 0 to 100 scale (0 no effect, 100 complete control)
# Method in brief: as §1
# [5] = test system: wheat (Triticum aestivum); settings: Triticum aestivum, post-emergence, 240 h; for plant injury at 125 g/ha: 125 g ai/ha; for plant injury at 500 g/ha: 500 g ai/ha, visual injury, 0 to 100 scale (0 no effect, 100 complete control)
# Method in brief: as §1
# [6] = postemergence, visual injury rating after approximately 10 d, read-out: Blackgrass plant response rating (0 to 100 scale, 0 no effect, 100 complete control)
# [7] = postemergence, visual injury rating after approximately 10 d, read-out: Foxtail, Giant plant response rating (0 to 100 scale, 0 no effect, 100 complete control)
# [8] = postemergence, visual injury rating after approximately 10 d, read-out: Ragweed plant response rating (0 to 100 scale, 0 no effect, 100 complete control)
# [9] = postemergence, visual injury rating after approximately 10 d, read-out: Ryegrass, Italian plant response rating (0 to 100 scale, 0 no effect, 100 complete control)
# [10] = postemergence, visual injury rating after approximately 10 d, read-out: Wheat plant response rating (0 to 100 scale, 0 no effect, 100 complete control)
# [11] = Postemergence, visual injury after approximately 10 d, 0 to 100 scale where 0 is no effect and 100 is complete control, read-out: Plant response rating, Blackgrass
# [12] = Postemergence, visual injury after approximately 10 d, 0 to 100 scale where 0 is no effect and 100 is complete control, read-out: Plant response rating, Foxtail, Giant
# [13] = Postemergence, visual injury after approximately 10 d, 0 to 100 scale where 0 is no effect and 100 is complete control, read-out: Plant response rating, Ragweed
# [14] = Postemergence, visual injury after approximately 10 d, 0 to 100 scale where 0 is no effect and 100 is complete control, read-out: Plant response rating, Ryegrass, Italian
# [15] = Postemergence, visual injury after approximately 10 d, 0 to 100 scale where 0 is no effect and 100 is complete control, read-out: Plant response rating, Wheat
# [16] = postemergence, read-out: Plant response rating, Blackgrass
# [17] = postemergence, approx. 10 d, read-out: Plant response rating, Foxtail, Giant
# [18] = postemergence, approx. 10 d, read-out: Plant response rating, Ragweed
# [19] = postemergence, approx. 10 d, read-out: Plant response rating, Ryegrass, Italian
# [20] = postemergence, approx. 10 d, read-out: Plant response rating, Wheat
# [21] = postemergence, visual injury on 0 to 100 scale (0 no effect, 100 complete control), approx. 10 d, read-out: Foxtail, Giant plant response rating
# [22] = postemergence, visual injury on 0 to 100 scale (0 no effect, 100 complete control), approx. 10 d, read-out: Ragweed plant response rating
# [23] = postemergence, visual injury on 0 to 100 scale (0 no effect, 100 complete control), approx. 10 d, read-out: Ryegrass, Italian plant response rating
# [24] = postemergence, visual injury on 0 to 100 scale (0 no effect, 100 complete control), approx. 10 d, read-out: Wheat plant response rating
SMILES,"pest or weed control at 125 g/ha [1, 6]","pest or weed control at 125 g/ha [2, 7]","pest or weed control at 125 g/ha [3, 8]","pest or weed control at 125 g/ha [4, 9]","plant injury at 125 g/ha [5, 10]","pest or weed control at 125 g/ha [1, 11]","pest or weed control at 125 g/ha [2, 12]","pest or weed control at 125 g/ha [3, 13]","pest or weed control at 125 g/ha [4, 14]","plant injury at 125 g/ha [5, 15]","pest or weed control at 500 g/ha [1, 16]","pest or weed control at 500 g/ha [2, 17]","pest or weed control at 500 g/ha [3, 18]","pest or weed control at 500 g/ha [4, 19]","plant injury at 500 g/ha [5, 20]","pest or weed control at 125 g/ha [2, 21]","pest or weed control at 125 g/ha [3, 22]","pest or weed control at 125 g/ha [4, 23]","plant injury at 125 g/ha [5, 24]"
COc1c(F)ccc([C@H]2CNC(=O)[C@@H]2C(=O)Nc2ccc(F)c(F)c2F)c1Cl [Compound 890],20%,70%,0%,0%,0%,,,,,,,,,,,,,,
COc1c(F)ccc([C@H]2CNC(=O)[C@@H]2C(=O)Nc2ccccc2C(F)(F)F)c1Cl [Compound 891],0%,40%,0%,0%,0%,,,,,,,,,,,,,,
CN1C[C@H](c2cc(F)c(C(F)(F)F)c(F)c2)[C@@H](C(=O)Nc2ccccc2S(C)(=O)=O)C1=O [Compound 900],40%,80%,10%,40%,50%,,,,,,,,,,,,,,
CN1C[C@H](c2cc(F)c(C(F)(F)F)c(F)c2)[C@@H](C(=O)Nc2ccc(F)cc2F)C1=O [Compound 901],20%,90%,0%,0%,20%,,,,,,,,,,,,,,
CCOc1ccc([C@H]2CN(C)C(=O)[C@@H]2C(=O)Nc2ccc(F)cc2F)cc1 [Compound 905],0%,60%,0%,0%,0%,,,,,,,,,,,,,,
CCOc1ccc([C@H]2CNC(=O)[C@@H]2C(=O)Nc2ccc(F)cc2F)cc1 [Compound 908],0%,30%,0%,0%,0%,,,,,,,,,,,,,,
CON1CC[C@H](c2ccc(F)cc2)[C@@H](C(=O)Nc2cccc(F)c2F)C1=O [Compound 918],,,,,,40%,0%,0%,0%,0%,,,,,,,,,
CN1CC[C@H](c2cccc(C(F)(F)F)c2)[C@@H](C(=O)Nc2ccccc2S(C)(=O)=O)C1=O [Compound 920],,,,,,0%,20%,0%,0%,0%,,,,,,,,,
CN1CC[C@H](c2cccc(Cl)c2)[C@@H](C(=O)Nc2cccc(F)c2F)C1=O [Compound 921],,,,,,20%,90%,0%,20%,20%,,,,,,,,,
Cc1cc([C@H]2CN(C)C(=O)[C@@H]2C(=O)Nc2ccccc2F)ccc1Cl [Compound 928],,,,,,30%,90%,0%,50%,40%,,,,,,,,,
Cc1cc([C@H]2CN(C)C(=O)[C@@H]2C(=O)Nc2ccc(F)cc2F)ccc1Cl [Compound 930],,,,,,20%,80%,0%,30%,30%,,,,,,,,,
Cc1ccc([C@H]2CN(C)C(=O)[C@@H]2C(=O)Nc2cccc(F)c2C)cc1Cl [Compound 1014],,,,,,0%,90%,0%,30%,30%,50%,90%,30%,60%,80%,,,,
CC(=O)Oc1ccc(F)c(NC(=O)[C@H]2C(=O)N(C)C[C@@H]2c2cc(F)cc(F)c2)c1 [Compound 1019],,,,,,0%,0%,0%,0%,0%,0%,0%,0%,0%,0%,,,,
O=C1NC[C@H](c2ccc3c(c2)OCO3)[C@H]1C(=O)Nc1ccc(F)cc1F [Compound 1026],,,,,,0%,0%,0%,0%,20%,0%,20%,0%,0%,30%,,,,
CC(C)COc1cccc([C@H]2CN(C)C(=O)[C@@H]2C(=O)Nc2ccc(F)cc2F)c1 [Compound 1030],,,,,,0%,,,,,60%,90%,0%,0%,60%,70%,0%,0%,30%
O=C(Nc1ccccc1F)[C@H]1C(=O)N(C2CC2)CC[C@@H]1c1ccccc1 [Compound 1031],,,,,,0%,,,,,0%,0%,0%,0%,0%,0%,0%,0%,0%
Cc1ccc([C@H]2CNC(=O)[C@@H]2C(=O)Nc2ccccc2F)cc1C [Compound 1033],,,,,,0%,,,,,40%,80%,30%,20%,0%,30%,0%,0%,0%
Cc1ccc([C@H]2CNC(=O)[C@@H]2C(=O)Nc2cccc(F)c2C)cc1C [Compound 1035],,,,,,40%,,,,,60%,90%,0%,60%,70%,50%,0%,40%,20%
CSc1ccccc1NC(=O)[C@H]1C(=O)NC[C@@H]1c1ccc(C)c(C)c1 [Compound 1036],,,,,,0%,,,,,0%,60%,10%,60%,20%,0%,0%,0%,0%
